Publication PMC2763345 (PLoS Pathogens, 2009)
Converted amounts (≈) assume the structure as drawn.

Assays:
[1] = test system: BCG Rv3790/DprE1 Cys387Ser (BN2); format: cell-based, M. bovis BCG
[2] = test system: M. smegmatis Rv3790/DprE1 Cys387Gly (MN47); format: cell-based
[3] = test system: M. smegmatis Rv3790/DprE1 Cys387Ser (MN84); format: cell-based

| Structure (SMILES) | MIC [1] | MIC [2] | MIC [3] |
| --- | --- | --- | --- |
| O=C(NCCOCc1ccccc1)c1cc([N+](=O)[O-])cc([N+](=O)[O-])c1 [Compound 7, N-(2-(benzyloxy)ethyl)-3,5-dinitrobenzamide] | > 10 µg/mL |  |  |
| COc1ccc(OCCNC(=O)c2cc([N+](=O)[O-])cc([N+](=O)[O-])c2)cc1 [Compound 8, N-(2-(4-methoxyphenoxy)ethyl)-3,5-dinitrobenzamide] | > 10 µg/mL |  |  |
| CO[C@H]1/C=C/O[C@@]2(C)Oc3c(C)c(O)c4c(O)c(c(/C=N/N5CCN(C)CC5)c(O)c4c3C2=O)NC(=O)/C(C)=C\C=C\[C@H](C)[C@H](O)[C@@H](C)[C@@H](O)[C@@H](C)[C@H](OC(C)=O)[C@@H]1C [Rifampin] | 0.31 µg/mL (≈ 0.377 µM) | 0.31 µg/mL (≈ 0.377 µM) | 0.31 µg/mL (≈ 0.377 µM) |
